Measured values taken from ChEMBL document CHEMBL1150711, “Maquiroside A, a new cytotoxic cardiac glycoside from Maquira calophylla” (1987).
In brackets after ≈: the same amount, converted by molar mass.

Tested on: KB
Experiment: Cytotoxicity against human KB cells
Type: functional
Details: read-out: ED50 (the source's name)

## CO[C@H]1C[C@H](O[C@H]2CC[C@@]3(CO)[C@H](CC[C@@H]4[C@@H]3CC[C@]3(C)[C@@H](C5=CC(=O)OC5)CC[C@]43O)C2)O[C@H](C)[C@H]1O [MAQUIROSIDE A]
  EC50: 0.013 µg/mL (≈ 0.0243 µM)
